According to ChEMBL document CHEMBL1156813 (J Med Chem, 2010):
pIC50, pKi: −log10 of the molar value. In brackets after ≈: the same amount, converted by molar mass.

Experiments:
Cannabinoid receptor 1 = Cannabinoid receptor 1 (Homo sapiens, UniProt P21554); experiment: biochemical; type: cell-based, CHO
physchem [1] = conditions: phosphate buffered saline, pH 7.4
physchem [2] = conditions: phosphate buffered saline, pH 2
Cannabinoid receptor 2 = Cannabinoid receptor 2 (Homo sapiens, UniProt P34972); experiment: biochemical
Acetylcholinesterase = Acetylcholinesterase (Homo sapiens, UniProt P22303); experiment: biochemical
Acetylcholinesterase, sequence (P22303 whole entry): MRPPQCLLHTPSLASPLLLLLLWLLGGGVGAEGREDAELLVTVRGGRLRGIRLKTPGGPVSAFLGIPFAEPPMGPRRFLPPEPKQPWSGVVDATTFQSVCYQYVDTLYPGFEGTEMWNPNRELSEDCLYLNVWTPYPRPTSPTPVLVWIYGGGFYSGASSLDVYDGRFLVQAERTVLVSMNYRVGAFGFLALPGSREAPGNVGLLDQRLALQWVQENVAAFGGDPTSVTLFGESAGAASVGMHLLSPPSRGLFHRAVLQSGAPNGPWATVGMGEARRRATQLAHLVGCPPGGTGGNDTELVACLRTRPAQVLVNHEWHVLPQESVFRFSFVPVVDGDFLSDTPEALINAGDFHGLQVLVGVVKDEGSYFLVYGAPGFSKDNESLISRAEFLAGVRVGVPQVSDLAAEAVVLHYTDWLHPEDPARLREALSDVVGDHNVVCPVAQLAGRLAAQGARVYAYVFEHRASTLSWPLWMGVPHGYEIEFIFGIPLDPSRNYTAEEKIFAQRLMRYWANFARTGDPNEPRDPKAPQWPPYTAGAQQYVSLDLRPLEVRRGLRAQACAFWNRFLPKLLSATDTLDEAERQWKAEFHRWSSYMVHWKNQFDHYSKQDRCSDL
Description: Inhibition of human recombinant AChE expressed in HEK293 cells by photometry

Cannabinoid receptor 1, sequence (P21554 whole entry): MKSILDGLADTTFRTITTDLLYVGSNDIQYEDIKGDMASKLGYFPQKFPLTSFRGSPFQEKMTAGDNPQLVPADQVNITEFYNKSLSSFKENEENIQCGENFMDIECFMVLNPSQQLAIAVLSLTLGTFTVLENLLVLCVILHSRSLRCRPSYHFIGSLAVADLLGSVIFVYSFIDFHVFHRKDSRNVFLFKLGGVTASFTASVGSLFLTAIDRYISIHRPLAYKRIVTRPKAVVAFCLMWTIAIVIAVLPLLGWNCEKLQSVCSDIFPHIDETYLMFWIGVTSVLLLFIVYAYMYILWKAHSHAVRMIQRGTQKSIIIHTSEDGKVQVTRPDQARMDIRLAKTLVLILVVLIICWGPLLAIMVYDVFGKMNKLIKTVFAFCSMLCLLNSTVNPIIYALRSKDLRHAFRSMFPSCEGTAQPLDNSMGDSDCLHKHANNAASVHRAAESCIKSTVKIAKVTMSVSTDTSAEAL
Cannabinoid receptor 2, sequence (P34972 whole entry): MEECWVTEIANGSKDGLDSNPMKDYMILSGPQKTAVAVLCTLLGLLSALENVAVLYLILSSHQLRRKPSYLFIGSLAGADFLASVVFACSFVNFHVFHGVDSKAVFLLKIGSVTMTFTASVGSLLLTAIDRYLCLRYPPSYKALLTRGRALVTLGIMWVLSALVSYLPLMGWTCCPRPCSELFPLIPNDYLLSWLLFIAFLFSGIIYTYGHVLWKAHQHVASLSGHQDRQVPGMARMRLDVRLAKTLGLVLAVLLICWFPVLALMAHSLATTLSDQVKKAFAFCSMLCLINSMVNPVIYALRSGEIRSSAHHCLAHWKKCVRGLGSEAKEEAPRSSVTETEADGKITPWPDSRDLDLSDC

Compound | pKi (Cannabinoid receptor 1) | solubility kinetic (physchem [1]) | solubility kinetic (physchem [2]) | pKi (Cannabinoid receptor 2) | pIC50 (Acetylcholinesterase)
CN1CCC(N/C(=N\S(=O)(=O)c2ccc(Cl)cc2)N2CC(c3ccccc3)C(c3ccc(Cl)cc3)=N2)CC1 (stereo unspecified) | 7.72 | 11 µM (≈ 6.28 µg/mL) | 65 µM (≈ 37.1 µg/mL) | < 6.00 | –
CN(C)CCCN/C(=N\S(=O)(=O)c1ccc(Cl)cc1)N1CC(c2ccccc2)C(c2ccc(Cl)cc2)=N1.Cl (stereo unspecified) | 8.51 | 38 µM | > 100 µM | < 6.00 | –
CC(C)(O)CN=C(NS(=O)(=O)c1ccc(Cl)cc1)N1CC(c2ccccc2)C(c2ccc(Cl)cc2)=N1 (stereo unspecified) | 7.37 | 4 µM (≈ 2.18 µg/mL) | 4 µM (≈ 2.18 µg/mL) | < 6.00 | –
CN(C)CCN1CCN(/C(=N\S(=O)(=O)c2ccc(Cl)cc2)N2CC(c3ccccc3)C(c3ccc(Cl)cc3)=N2)CC1 (stereo unspecified) | 8.02 | 4 µM (≈ 2.45 µg/mL) | 65 µM (≈ 39.9 µg/mL) | < 6.00 | –
O=S(=O)(/N=C(\NCCCCNc1c2c(nc3ccccc13)CCCC2)N1CC(c2ccccc2)C(c2ccc(Cl)cc2)=N1)c1ccc(Cl)cc1 (stereo unspecified) | 7.38 | – | – | < 6.00 | –
O=S(=O)(N=C(NCCCCN1CCCC1)N1CC(c2ccccc2)C(c2ccc(Cl)cc2)=N1)c1ccc(Cl)cc1 (stereo unspecified) | 7.57 | 11 µM (≈ 6.58 µg/mL) | 38 µM (≈ 22.7 µg/mL) | < 6.00 | –
CCc1c(C(=O)NN2CCCCC2)nc(-c2ccccc2Cl)n1-c1ccc(Cl)cc1 | 7.85 | – | – | < 6.00 | < 4.50
O=S1(=O)CCN(/C(=N\S(=O)(=O)c2ccc(Cl)cc2)N2CC(c3ccccc3)C(c3ccc(Cl)cc3)=N2)CC1 (stereo unspecified) | 7.51 | < 3 µM | < 7 µM | 6.24 | –
CNC(=NS(=O)(=O)c1ccc(Cl)cc1)N1CC(c2ccccc2)C(c2ccc(Cl)cc2)=N1 (stereo not drawn) [RAC-IBIPINABANT] | – | 2 µM (≈ 0.975 µg/mL) | 4 µM (≈ 1.95 µg/mL) | – | –
